Measured values from paper PMC9919699, “A Comprehensive Approach to Derivatization: Elemental Composition, Biochemical, and In Silico Studies of Metformin Derivatives Containing Copper and Zinc Complexes” (Molecules, 2023).
Read-outs that look alike come from different tables or passages of the source.

Legend:
α-glucosidase = α-glucosidase enzyme inhibition assay (starch substrate, anthrone reagent, 640 nm); type: biochemical
Experimental: The α-glucosidase-inhibitory activity of all derivatives of metformin was tested using the method previously described. Three test tubes were marked as test (T), blank (B), and control (C). Then, 200 µL of substrate (starch) and enzyme (α-glucosidase) was added to test tubes T and C. The contents were mixed well, and then the test tubes were incubated at 37 °C for 30 min. After incubation, trichloroacetic acid was added to all test tubes, which were then centrifuged for 10 min. Free glucose was available after the reaction with anthrone reagent (1.5 mL). The contents in the test tubes were boiled for 15 min, and the absorbance was read at a wavelength at 640 nm. The percentage inhibition was calculated using the following formula:Percentage inhibition = OD of control − OD of test tube/OD of control × 100.

α-amylase = α-amylase enzyme inhibition assay (starch, dinitro-salicylic acid, 540 nm); type: biochemical
Experimental: All derivatives of metformin were analyzed for serum amylase inhibitory activity using the Yukihoko Hara method. Three test tubes were labeled as blank (B), test (T), and control (C). Then, 2.5 mL of phosphate buffer (pH 6.8) was added to each test tube. Next, 1 mL of starch and 1 mL of 2 N sodium chloride solution were added to each test tube. The test tubes were incubated at 37 °C for 10 min. After incubation, 0.5 mL of derivatives was added to test tube T, followed by 0.2 mL of enzyme (α-amylase). All contents were mixed well, and then the tube was incubated at 37 °C for 10 min. In the control test tube, normal saline (2 N), starch solution (1 mL), and enzyme solution (0.2 mL) were added before incubating at 37 °C for 10 min. In the blank test tube, only 5.7 mL of distilled water was added. Dinitro-salicylic acid (0.2 mL) was added to all test tubes. The contents were mixed well, and the test tubes were kept in a boiling water bath for 15 min. The intensity of reddish orange was read at 540 nm. The percentage inhibitory action of serum amylase was calculated using the following formula:Percentage inhibition = OD of control − OD of test tube/OD of control × 100.

[1] = 250 µg/mL, Table 5 (MCu series)
[2] = 500 µg/mL, Table 5 (MCu series)
[3] = 1000 µg/mL, Table 5 (MCu series)
[4] = Table 5 (MCu series), read-out: IC50
[5] = 250 µg/mL, Table 8 (MCu series)
[6] = 500 µg/mL, Table 8 (MCu series)
[7] = 1000 µg/mL, Table 8 (MCu series)
[8] = Table 8 (MCu series), read-out: IC50
[9] = 250 µg/mL, Table 6 (MZn series)
[10] = 500 µg/mL, Table 6 (MZn series)
[11] = 1000 µg/mL, Table 6 (MZn series)
[12] = 250 µg/mL, Table 9 (MZn series)
[13] = 500 µg/mL, Table 9 (MZn series)
[14] = 1000 µg/mL, Table 9 (MZn series)
[15] = Table 9 (MZn series), read-out: IC50

Structure (SMILES) | % Inhibition (α-glucosidase; [1]) | % Inhibition (α-glucosidase; [2]) | % Inhibition (α-glucosidase; [3]) | IC50 (α-glucosidase; [4]) | % Inhibition (α-amylase; [5]) | % Inhibition (α-amylase; [6]) | % Inhibition (α-amylase; [7]) | IC50 (α-amylase; [8]) | % Inhibition (α-glucosidase; [9]) | % Inhibition (α-glucosidase; [10]) | % Inhibition (α-glucosidase; [11]) | % Inhibition (α-amylase; [12]) | % Inhibition (α-amylase; [13]) | % Inhibition (α-amylase; [14]) | IC50 (α-amylase; [15]) | IC50 (α-glucosidase) | IC50 (α-glucosidase; Table 6 (MZn series), read-out: IC50) | IC50 (α-amylase)
CN(C)C(=N)NC(=N)N=C(c1ccccc1)C(O)c1ccccc1.CN(C)C(=N)NC(=N)N=C(c1ccccc1)C(O)c1ccccc1.O.O.O.O.O.O=S(=O)([O-])[O-].[Cu+2] (stereo not shown) [MCu9] | 15.23 ± 0.12% | 28.37 ± 0.20% | 49.49 ± 0.25% | 200 µM | 13.46 ± 0.23% | 34.66 ± 0.40% | 67.48 ± 0.40% | 130 µM | – | – | – | – | – | – | – | – | – | –
C=NC(=N)NC(=N)N(C)C.C=NC(=N)NC(=N)N(C)C.O.O.O.O.O.O=S(=O)([O-])[O-].[Zn+2] [MZn4] | – | – | – | – | – | – | – | – | 11.30 ± 0.15% | 13.59 ± 0.20% | 14.71 ± 0.26% | 15.55 ± 0.34% | 31.49 ± 0.28% | 54.44 ± 0.28% | 500 µM | – | – | –
COc1cc(C=NC(=N)NC(=N)N(C)C)ccc1O.COc1cc(C=NC(=N)NC(=N)N(C)C)ccc1O.O.O.O.O.O.O=S(=O)([O-])[O-].[Zn+2] [MZn8] | – | – | – | – | – | – | – | – | 49.24 ± 0.21% | 70.37 ± 0.25% | 81.54 ± 0.26% | 37.46 ± 0.23% | 68.50 ± 0.40% | 83.52 ± 0.40% | 900 µM | 511.4 µg/mL | 650 µM | –
CC(C)=NC(=N)NC(=N)N(C)C.CC(C)=NC(=N)NC(=N)N(C)C.O.O.O.O.O.O=S(=O)([O-])[O-].[Zn+2] [MZn5] | – | – | – | – | – | – | – | – | 32.86 ± 0.15% | 38.87 ± 0.10% | 49.46 ± 0.20% | 15.44 ± 0.28% | 37.60 ± 0.28% | 58.35 ± 0.17% | 560 µM | – | – | –
C=NC(=N)NC(=N)N(C)C.C=NC(=N)NC(=N)N(C)C.O.O.O.O.O.O=S(=O)([O-])[O-].[Cu+2] [MCu4] | 18.64 ± 0.07% | 31.28 ± 0.08% | 51.20 ± 0.18% | 500 µM | 19.48 ± 0.40% | 31.46 ± 0.23% | 48.32 ± 0.51% | 300 µM | – | – | – | – | – | – | – | – | – | –
CN(C)C(=N)NC(=N)N=C(c1ccccc1)c1ccccc1.CN(C)C(=N)NC(=N)N=C(c1ccccc1)c1ccccc1.O.O.O.O.O.O=S(=O)([O-])[O-].[Zn+2] [MZn7] | – | – | – | – | – | – | – | – | 33.67 ± 67% | 37.61 ± 0.20% | 42.54 ± 0.26% | 24.32 ± 0.51% | 44.52 ± 0.34% | 73.43 ± 0.28% | 250 µM | – | – | –
COc1cc(C=NC(=N)NC(=N)N(C)C)ccc1O.COc1cc(C=NC(=N)NC(=N)N(C)C)ccc1O.O.O.O.O.O.O=S(=O)([O-])[O-].[Cu+2] [MCu8] | 41.50 ± 0.26% | 67.35 ± 35% | 83.14 ± 0.09% | 720 µM | 42.68 ± 0.46% | 61.35 ± 0.51% | 84.35 ± 0.51% | 900 µM | – | – | – | – | – | – | – | – | – | 712.6 µg/mL
CN(C)C(=N)NC(=N)N=C(c1ccccc1)C(O)c1ccccc1.CN(C)C(=N)NC(=N)N=C(c1ccccc1)C(O)c1ccccc1.O.O.O.O.O.O=S(=O)([O-])[O-].[Zn+2] (stereo not shown) [MZn9] | – | – | – | – | – | – | – | – | 28.64 ± 0.25% | 37.51 ± 0.25% | 45.37 ± 0.20% | 15.64 ± 0.28% | 38.64 ± 0.40% | 59.70 ± 0.46% | 700 µM | – | – | –
CC(=NC(=N)NC(=N)N(C)C)c1ccccc1.CC(=NC(=N)NC(=N)N(C)C)c1ccccc1.O.O.O.O.O.O=S(=O)([O-])[O-].[Cu+2] [MCu6] | 10.74 ± 0.11% | 24.44 ± 0.15% | 53.44 ± 0.33% | 290 µM | 23.34 ± 0.51% | 45.45 ± 0.28% | 64.65 ± 0.28% | 320 µM | – | – | – | – | – | – | – | – | – | –
